Measurements from patent US20140155384A1, “COMPOUNDS AND METHODS OF TREATING DIABETES” (Medivation Technologies, Inc., priority 2011, published 2014).

Columns and labels:
[1] = molecular target: T1, rat adrenergic α1B receptor (Rattus norvegicus, UniProt P15823); experiment: Radioligand binding, adrenergic α1B receptor ([3H]Prazosin); conditions: 0.1 μM compound, Wistar rat liver, read-out: Percentage inhibition of ligand binding, Adrenergic α1B
T1 construct: rat adrenergic α1B receptor obtained from Wistar Rat liver; from tissue; host or cells: Wistar rat liver
T1 sequence (P15823 1-515): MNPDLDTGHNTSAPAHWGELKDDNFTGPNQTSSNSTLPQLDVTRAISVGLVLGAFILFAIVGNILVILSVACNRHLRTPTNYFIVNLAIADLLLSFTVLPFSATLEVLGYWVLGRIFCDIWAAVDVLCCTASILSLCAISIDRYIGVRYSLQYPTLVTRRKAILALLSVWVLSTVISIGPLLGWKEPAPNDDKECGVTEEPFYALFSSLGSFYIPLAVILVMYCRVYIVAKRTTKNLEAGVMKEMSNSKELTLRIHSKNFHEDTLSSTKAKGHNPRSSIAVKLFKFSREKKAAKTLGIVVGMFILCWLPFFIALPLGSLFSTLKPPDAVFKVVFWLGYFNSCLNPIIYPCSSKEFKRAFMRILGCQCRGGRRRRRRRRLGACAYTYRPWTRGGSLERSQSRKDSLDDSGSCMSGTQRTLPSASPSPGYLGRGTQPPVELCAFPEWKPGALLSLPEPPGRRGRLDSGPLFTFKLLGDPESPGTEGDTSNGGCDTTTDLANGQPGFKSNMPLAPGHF
Procedure, shortened: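 Wistar rat liver α1B receptor preparation incubated with 0.25 nM [3H]prazosin and compound for 60 min at 25° C in 50 mM Tris-HCl pH 7.4, 0.5 mM EDTA; nonspecific binding defined with 10 μM phentolamine.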

[2] = molecular target: T2, human recombinant adrenergic α1D receptor (Homo sapiens, UniProt P25100); experiment: Radioligand binding, adrenergic α1D receptor ([3H]Prazosin); conditions: 0.1 μM compound; HEK-293 cells; 0.6 nM [3H]Prazosin; read-out: Percentage inhibition of ligand binding, Adrenergic α1D
T2 construct: expressed in transfected cells; host or cells: HEK-293
T2 sequence (P25100 1-572): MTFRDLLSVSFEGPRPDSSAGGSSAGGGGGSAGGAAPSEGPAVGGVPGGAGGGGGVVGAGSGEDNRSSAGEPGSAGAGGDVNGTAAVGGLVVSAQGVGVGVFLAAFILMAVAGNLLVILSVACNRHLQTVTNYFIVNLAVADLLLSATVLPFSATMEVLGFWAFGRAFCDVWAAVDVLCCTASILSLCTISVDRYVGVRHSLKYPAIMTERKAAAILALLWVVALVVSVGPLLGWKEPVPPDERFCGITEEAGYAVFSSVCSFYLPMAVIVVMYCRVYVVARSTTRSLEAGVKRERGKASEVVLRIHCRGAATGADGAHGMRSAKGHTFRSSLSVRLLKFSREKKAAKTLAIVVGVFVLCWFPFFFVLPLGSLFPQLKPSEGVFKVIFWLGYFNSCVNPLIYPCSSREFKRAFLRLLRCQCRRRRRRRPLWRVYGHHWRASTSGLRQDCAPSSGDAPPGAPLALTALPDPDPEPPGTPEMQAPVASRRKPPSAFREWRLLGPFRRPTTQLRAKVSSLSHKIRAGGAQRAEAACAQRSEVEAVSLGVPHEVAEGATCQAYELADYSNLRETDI
Experimental: Compounds were incubated with 0.6 nM [3H]Prazosin for 60 min at 25° C. Non-specific binding was estimated in the presence of 10 μM phentolamine. Receptor proteins were filtered and washed, the filters were then counted to determine [3H]Prazosin specifically bound. Compounds were screened at 1 μM or lower, using 1% DMSO as vehicle. Biochemical assay results are presented as the percent inhibition of specific binding in Table 2.

[3] = molecular target: T3, human recombinant adrenergic α2A receptor (Homo sapiens, UniProt P08913); experiment: Radioligand binding, adrenergic α2A receptor ([3H]MK-912); conditions: 0.1 μM compound; Sf9 cells; 1 nM [3H]MK-912; read-out: Percentage inhibition of ligand binding, Adrenergic α2A
T3 construct: expressed in transfected cells; host or cells: insect Sf9 cells
T3 sequence (P08913 1-465): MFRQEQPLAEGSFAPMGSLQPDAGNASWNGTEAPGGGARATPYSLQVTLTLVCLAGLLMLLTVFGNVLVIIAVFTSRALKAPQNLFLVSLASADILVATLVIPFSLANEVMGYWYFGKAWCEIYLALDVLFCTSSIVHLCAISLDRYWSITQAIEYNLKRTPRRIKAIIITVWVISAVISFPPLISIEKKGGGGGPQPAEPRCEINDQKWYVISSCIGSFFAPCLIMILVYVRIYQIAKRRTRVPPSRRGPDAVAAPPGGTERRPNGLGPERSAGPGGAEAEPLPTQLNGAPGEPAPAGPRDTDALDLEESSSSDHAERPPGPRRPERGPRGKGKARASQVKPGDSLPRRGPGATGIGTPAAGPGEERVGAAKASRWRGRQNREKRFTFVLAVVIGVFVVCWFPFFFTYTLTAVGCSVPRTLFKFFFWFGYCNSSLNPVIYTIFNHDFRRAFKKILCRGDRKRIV
Procedure, shortened: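 Percent inhibition of specific [3H]MK-912 (1 nM) binding measured by filtration counting, compounds tested at ≤1 μM in 1% DMSO. Receptor: human α2A from Sf9 cells; incubation 60 min, 25 °C, pH 7.4; 10 μM WB-4101 defined nonspecific binding.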

[4] = molecular target: T4, human recombinant adrenergic α2B receptor (Homo sapiens, UniProt P18089); experiment: Radioligand binding, adrenergic α2B receptor ([3H]Rauwolscine); conditions: 0.1 μM compound, CHO-K1 cells, read-out: Percentage inhibition of ligand binding, Adrenergic α2B
T4 construct: expressed in transfected cells; host or cells: CHO-K1
T4 sequence (P18089 1-450): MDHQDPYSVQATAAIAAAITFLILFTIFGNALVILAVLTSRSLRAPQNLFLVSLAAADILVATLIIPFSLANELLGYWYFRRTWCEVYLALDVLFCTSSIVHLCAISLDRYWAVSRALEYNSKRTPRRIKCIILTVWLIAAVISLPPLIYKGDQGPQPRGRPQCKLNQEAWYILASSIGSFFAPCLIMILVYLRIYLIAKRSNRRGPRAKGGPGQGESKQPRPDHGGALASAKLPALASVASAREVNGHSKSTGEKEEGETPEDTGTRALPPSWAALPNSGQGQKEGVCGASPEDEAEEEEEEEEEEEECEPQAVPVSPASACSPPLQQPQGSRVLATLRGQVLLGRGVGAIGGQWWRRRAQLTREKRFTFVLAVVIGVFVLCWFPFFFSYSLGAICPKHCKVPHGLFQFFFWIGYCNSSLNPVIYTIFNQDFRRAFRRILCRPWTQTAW
Procedure, shortened: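 Percent inhibition of specific [3H]Rauwolscine (2.5 nM) binding, compounds at ≤1 μM, 1% DMSO vehicle, 10 μM prazosin defining nonspecific. Receptor: human α2B expressed in CHO-K1 cells, 60 min incubation at 25 °C in Tris-HCl pH 7.4 buffer (MgCl2, EDTA, BSA); filtered, washed, counted.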

| Structure (SMILES) | inhibition at 0.1 µM [1] | inhibition at 0.1 µM [2] | inhibition at 0.1 µM [3] | inhibition at 0.1 µM [4] |
| --- | --- | --- | --- | --- |
| Cc1ccc2c(c1)c1c(n2-c2cccc(-c3ccc(F)nc3)c2)CCN(C)C1 [Compound 44, 5-(3-(6-fluoropyridin-3-yl)phenyl)-2,8-dimethyl-2,3,4,5-tetrahydro-1H-pyrido[4,3-b]indole] | 0% | 2% | 29% | 12% |
| Cc1ccc2c(c1)c1c(n2-c2cccc(-c3sccc3C)c2)CCN(C)C1 [Compound 43, 2,8-dimethyl-5-(3-(3-methylthiophen-2-yl)phenyl)-2,3,4,5-tetrahydro-1H-pyrido[4,3-b]indole] | 9% | 3% | 31% | 6% |
| Cc1ccc2c(c1)c1c(n2-c2ccc(-c3cnc(N(C)C)nc3)cn2)CCN(C)C1 [Compound No. 138, 5-(6-(2,8-dimethyl-3,4-dihydro-1H-pyrido[4,3-b]indol-5(2H)-yl)pyridin-3-yl)-N,N-dimethylpyrimidin-2-amine] | 73% | 73% | 40% | 82% |
| CC(=O)Nc1ccc(-c2cccc(-n3c4c(c5cc(C)ccc53)CN(C)CC4)c2)cn1 [Compound 45, N-(5-(3-(2,8-dimethyl-3,4-dihydro-1H-pyrido[4,3-b]indol-5(2H)-yl)phenyl)pyridin-2-yl)acetamide] | 1% | 1% | 12% | 6% |
| Cc1ccc2c(c1)c1c(n2-c2cscc2-c2cncc3ccccc23)CCN(C)C1 [Compound 34] | 16% | 18% | 28% | 1% |
| CC(=O)Nc1ccc(-c2cscc2-n2c3c(c4cc(C)ccc42)CN(C)CC3)cn1 [Compound 56] | 36% | 65% | 4% | 90% |
| Cc1ccc2c(c1)c1c(n2-c2ccccc2-c2ccc(F)cc2)CCN(C)C1 [Compound 10, 5-(4′-fluoro-biphenyl-2-yl)-2,8-dimethyl-2,3,4,5-tetrahydro-1H-pyrido[4,3-b]indole] | 61% | 63% | 88% | 85% |
| Cc1ccc2c(c1)c1c(n2-c2cccc3ccncc23)CCN(C)C1 [Compound 58, 5-(isoquinolin-8-yl)-2,8-dimethyl-2,3,4,5-tetrahydro-1H-pyrido[4,3-b]indole] | 22% | 24% | 22% | 39% |
| Cc1ccc2c(c1)c1c(n2-c2ccc(-c3cncc4ccccc34)cn2)CCN(C)C1 [Compound No. 135, 5-(5-(isoquinolin-4-yl)pyridin-2-yl)-2,8-dimethyl-2,3,4,5-tetrahydro-1H-pyrido[4,3-b]indole] | 59% | 64% | 56% | 99% |
| Cc1ccc2c(c1)c1c(n2-c2cscc2-c2ccc(F)nc2)CCN(C)C1 [Compound 35] | 67% | 68% | 84% | 95% |
| Cc1ccc2c(c1)c1c(n2-c2cccc(-c3ccc(C)s3)c2)CCN(C)C1 [Compound No. 64, 2,8-dimethyl-5-(3-(5-methylthiophen-2-yl)phenyl)-2,3,4,5-tetrahydro-1H-pyrido[4,3-b]indole] | 10% | -1% | 25% | 1% |
| CC(=O)Nc1ccc(-c2ccc(-n3c4c(c5cc(C)ccc53)CN(C)CC4)nc2)cn1 [Compound No. 139, N-(6′-(2,8-dimethyl-3,4-dihydro-1H-pyrido[4,3-b]indol-5(2H)-yl)-3,3′-bipyridin-6-yl)acetamide] | 55% | 45% | 18% | 59% |
| CNC(=O)c1ccc(-c2cscc2-n2c3c(c4cc(C)ccc42)CN(C)CC3)cn1 [Compound No. 73] | 64% | 83% | 16% | 94% |
| Cc1ccc2c(c1)c1c(n2-c2cccc(-c3cnc(N(C)C)nc3)c2)CCN(C)C1 [Compound 42, 5-(3-(2,8-dimethyl-3,4-dihydro-1H-pyrido[4,3-b]indol-5(2H)-yl)phenyl)-N,N-dimethylpyrimidin-2-amine] | 10% | -3% | 17% | 7% |
| Cc1ccc2c(c1)c1c(n2-c2cscc2-c2cnn(C)c2)CCN(C)C1 [Compound 30] | 32% | 17% | 42% | 86% |
| Cc1cc(C)c2c(c1)c1c(n2-c2cscc2-c2ccncc2)CCN(C)C1 [Compound No. 149] | 16% | 8% | -6% | 14% |
| Cc1ccc2c(c1)c1c(n2-c2ccccc2-c2cnn(C)c2)CCN(C)C1 [Compound No. 86, 2,8-dimethyl-5-(2-(1-methyl-1H-pyrazol-4-yl)phenyl)-2,3,4,5-tetrahydro-1H-pyrido[4,3-b]indole] | 26% | 22% | 33% | 67% |
